Consider 2 compounds from ChEMBL document CHEMBL4507319 (2021).

The target in assay [1] is Sigma intracellular receptor 2 (Homo sapiens, UniProt Q5BJF2). In words: GPCRScan assay: inhibition of Sigma 2. Details: radioligand conc. used [nm] 5.0, parental cells HEKT.
Assay [2] concerns the target 5'-AMP-activated protein kinase catalytic subunit alpha-1 (Homo sapiens, UniProt Q13131). Kind of assay: Cellular mechanistic pACC assay using Colo-320 cells. It is filed as cell-based.
Assay [3] relates to ALK tyrosine kinase receptor (Homo sapiens), Q9UM73 [C1156Y]. The following applies: Compound concentration 1000.0 nM.
Assay [4] has as its target Calcium/calmodulin-dependent protein kinase kinase 2 (Homo sapiens) (UniProt Q96RR4). The following applies: Compound concentration 1000.0 nM.
Assay [5] addresses Macrophage colony-stimulating factor 1 receptor (Homo sapiens) (UniProt P07333). The following applies: Compound concentration 1000.0 nM.
In assay [6] the test system is Epidermal growth factor receptor (Homo sapiens), P00533 [UNDEFINED MUTATION]. The following applies: Compound concentration 1000.0 nM.
In assay [7] the target is Vascular endothelial growth factor receptor 1 (Homo sapiens) (UniProt P17948). The following applies: Compound concentration 1000.0 nM.
Assay [8] has as its target Mast/stem cell growth factor receptor Kit (Homo sapiens) (UniProt P10721). To be noted: Compound concentration 1000.0 nM.
The target in assay [9] is Serine/threonine-protein kinase 10 (Homo sapiens) (UniProt O94804). The following applies: Compound concentration 1000.0 nM.
The target in assay [10] is T1, Mitogen-activated protein kinase kinase kinase kinase 3 (Homo sapiens) (UniProt Q8IVH8).
T1 sequence (whole entry): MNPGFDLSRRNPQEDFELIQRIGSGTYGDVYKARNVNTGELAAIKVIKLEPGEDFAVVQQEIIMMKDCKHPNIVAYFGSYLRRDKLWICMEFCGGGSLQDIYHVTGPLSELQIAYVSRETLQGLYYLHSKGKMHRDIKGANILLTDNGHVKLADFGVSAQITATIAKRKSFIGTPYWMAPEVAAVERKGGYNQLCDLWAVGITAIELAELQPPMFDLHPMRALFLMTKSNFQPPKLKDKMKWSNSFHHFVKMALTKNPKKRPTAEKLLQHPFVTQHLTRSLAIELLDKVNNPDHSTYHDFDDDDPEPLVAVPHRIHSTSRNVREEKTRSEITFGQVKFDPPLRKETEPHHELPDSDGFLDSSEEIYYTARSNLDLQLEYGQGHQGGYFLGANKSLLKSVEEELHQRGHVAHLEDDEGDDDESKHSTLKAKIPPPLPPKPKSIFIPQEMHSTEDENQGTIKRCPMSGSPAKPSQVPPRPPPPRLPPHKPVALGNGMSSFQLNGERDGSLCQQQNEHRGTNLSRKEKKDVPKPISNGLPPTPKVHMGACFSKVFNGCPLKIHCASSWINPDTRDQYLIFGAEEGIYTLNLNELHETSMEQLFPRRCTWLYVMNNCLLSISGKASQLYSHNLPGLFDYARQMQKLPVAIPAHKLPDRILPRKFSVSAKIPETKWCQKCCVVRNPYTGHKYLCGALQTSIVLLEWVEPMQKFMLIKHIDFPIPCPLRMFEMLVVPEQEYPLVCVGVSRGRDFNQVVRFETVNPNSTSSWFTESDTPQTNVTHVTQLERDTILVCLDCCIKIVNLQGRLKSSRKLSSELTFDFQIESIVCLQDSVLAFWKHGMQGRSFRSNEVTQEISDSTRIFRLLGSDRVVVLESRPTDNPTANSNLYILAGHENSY
The following applies: Compound concentration 1000.0 nM.

Assay [11] has as its target T2, Serine/threonine-protein kinase Nek11 (Homo sapiens) (UniProt Q8NG66).
T2 sequence (whole entry): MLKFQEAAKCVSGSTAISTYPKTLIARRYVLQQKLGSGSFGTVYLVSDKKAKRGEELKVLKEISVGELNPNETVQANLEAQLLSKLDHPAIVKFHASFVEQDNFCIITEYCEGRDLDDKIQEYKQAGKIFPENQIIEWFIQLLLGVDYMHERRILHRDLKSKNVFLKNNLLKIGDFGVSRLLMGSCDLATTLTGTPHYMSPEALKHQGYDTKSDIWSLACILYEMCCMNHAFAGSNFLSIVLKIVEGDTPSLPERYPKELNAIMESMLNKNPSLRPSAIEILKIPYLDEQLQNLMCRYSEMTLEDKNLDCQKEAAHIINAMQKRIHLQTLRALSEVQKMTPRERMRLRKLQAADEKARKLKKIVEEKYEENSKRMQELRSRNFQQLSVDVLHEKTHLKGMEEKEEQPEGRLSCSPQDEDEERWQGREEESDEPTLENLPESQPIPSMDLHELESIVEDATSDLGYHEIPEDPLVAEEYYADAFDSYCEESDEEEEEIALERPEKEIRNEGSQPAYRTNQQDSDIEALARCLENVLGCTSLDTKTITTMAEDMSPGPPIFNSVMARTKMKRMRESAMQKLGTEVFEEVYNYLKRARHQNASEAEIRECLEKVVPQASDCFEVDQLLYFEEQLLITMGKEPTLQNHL
To be noted: Compound concentration 1000.0 nM.

The target of assay [12] is Platelet-derived growth factor receptor alpha (Homo sapiens) (UniProt P16234). The following applies: Compound concentration 1000.0 nM.
Assay [13] concerns the target Phosphatidylinositol 5-phosphate 4-kinase type-2 beta (Homo sapiens) (UniProt P78356). To be noted: Compound concentration 1000.0 nM.
Assay [14] concerns the target Ribosomal protein S6 kinase alpha-1 (Homo sapiens, UniProt Q15418). The following applies: Compound concentration 1000.0 nM.
Assay [15] addresses Ribosomal protein S6 kinase beta-1 (Homo sapiens) (UniProt P23443). To be noted: Compound concentration 1000.0 nM.
The target in assay [16] is NT-3 growth factor receptor (Homo sapiens) (UniProt Q16288). The following applies: Compound concentration 1000.0 nM.
Assay [17] concerns the target Alpha-2C adrenergic receptor (Homo sapiens) (UniProt P18825). The following applies: Compound concentration 10.0 uM.

Phosphatidylinositol 5-phosphate 4-kinase type-2 beta (Homo sapiens), sequence (P78356 whole entry): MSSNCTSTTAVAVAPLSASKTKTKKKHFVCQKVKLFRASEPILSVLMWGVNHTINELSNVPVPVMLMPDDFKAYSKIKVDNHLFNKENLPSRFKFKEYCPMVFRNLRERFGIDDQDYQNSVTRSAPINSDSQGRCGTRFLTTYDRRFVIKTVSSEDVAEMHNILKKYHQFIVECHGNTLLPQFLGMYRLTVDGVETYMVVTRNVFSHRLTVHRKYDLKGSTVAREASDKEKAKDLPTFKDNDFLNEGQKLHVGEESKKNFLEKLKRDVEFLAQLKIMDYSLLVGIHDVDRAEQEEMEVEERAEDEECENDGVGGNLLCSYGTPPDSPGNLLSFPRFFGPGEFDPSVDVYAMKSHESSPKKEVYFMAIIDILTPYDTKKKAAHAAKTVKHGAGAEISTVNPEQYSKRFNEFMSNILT
Ribosomal protein S6 kinase beta-1 (Homo sapiens), sequence (P23443 whole entry, looked up): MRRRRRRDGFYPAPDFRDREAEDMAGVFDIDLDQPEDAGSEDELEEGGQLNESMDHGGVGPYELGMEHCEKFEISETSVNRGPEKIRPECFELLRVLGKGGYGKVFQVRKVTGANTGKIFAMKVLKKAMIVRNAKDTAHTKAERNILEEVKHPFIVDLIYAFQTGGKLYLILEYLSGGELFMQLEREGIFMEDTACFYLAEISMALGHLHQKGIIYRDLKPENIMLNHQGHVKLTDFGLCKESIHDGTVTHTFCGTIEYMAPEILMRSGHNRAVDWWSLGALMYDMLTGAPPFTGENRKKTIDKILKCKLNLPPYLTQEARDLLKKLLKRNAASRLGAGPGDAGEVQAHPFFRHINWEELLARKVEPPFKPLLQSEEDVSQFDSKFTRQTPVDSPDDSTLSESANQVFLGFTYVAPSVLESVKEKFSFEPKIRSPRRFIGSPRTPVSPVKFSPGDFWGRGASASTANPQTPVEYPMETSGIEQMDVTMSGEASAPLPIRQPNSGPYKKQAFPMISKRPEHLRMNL
Alpha-2C adrenergic receptor (Homo sapiens), sequence (P18825 whole entry): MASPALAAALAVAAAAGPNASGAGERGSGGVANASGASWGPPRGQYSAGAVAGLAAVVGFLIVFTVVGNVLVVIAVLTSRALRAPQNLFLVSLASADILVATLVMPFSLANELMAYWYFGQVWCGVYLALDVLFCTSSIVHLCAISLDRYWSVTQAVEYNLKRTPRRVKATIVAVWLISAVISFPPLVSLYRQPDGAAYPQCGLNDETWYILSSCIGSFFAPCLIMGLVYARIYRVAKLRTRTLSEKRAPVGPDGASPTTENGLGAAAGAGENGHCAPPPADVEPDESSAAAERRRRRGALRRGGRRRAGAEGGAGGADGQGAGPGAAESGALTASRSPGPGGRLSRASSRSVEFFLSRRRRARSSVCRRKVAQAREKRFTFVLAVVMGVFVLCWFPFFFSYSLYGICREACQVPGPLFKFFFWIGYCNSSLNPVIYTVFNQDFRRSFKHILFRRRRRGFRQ
NT-3 growth factor receptor (Homo sapiens), sequence (Q16288 32-839 limits assumed): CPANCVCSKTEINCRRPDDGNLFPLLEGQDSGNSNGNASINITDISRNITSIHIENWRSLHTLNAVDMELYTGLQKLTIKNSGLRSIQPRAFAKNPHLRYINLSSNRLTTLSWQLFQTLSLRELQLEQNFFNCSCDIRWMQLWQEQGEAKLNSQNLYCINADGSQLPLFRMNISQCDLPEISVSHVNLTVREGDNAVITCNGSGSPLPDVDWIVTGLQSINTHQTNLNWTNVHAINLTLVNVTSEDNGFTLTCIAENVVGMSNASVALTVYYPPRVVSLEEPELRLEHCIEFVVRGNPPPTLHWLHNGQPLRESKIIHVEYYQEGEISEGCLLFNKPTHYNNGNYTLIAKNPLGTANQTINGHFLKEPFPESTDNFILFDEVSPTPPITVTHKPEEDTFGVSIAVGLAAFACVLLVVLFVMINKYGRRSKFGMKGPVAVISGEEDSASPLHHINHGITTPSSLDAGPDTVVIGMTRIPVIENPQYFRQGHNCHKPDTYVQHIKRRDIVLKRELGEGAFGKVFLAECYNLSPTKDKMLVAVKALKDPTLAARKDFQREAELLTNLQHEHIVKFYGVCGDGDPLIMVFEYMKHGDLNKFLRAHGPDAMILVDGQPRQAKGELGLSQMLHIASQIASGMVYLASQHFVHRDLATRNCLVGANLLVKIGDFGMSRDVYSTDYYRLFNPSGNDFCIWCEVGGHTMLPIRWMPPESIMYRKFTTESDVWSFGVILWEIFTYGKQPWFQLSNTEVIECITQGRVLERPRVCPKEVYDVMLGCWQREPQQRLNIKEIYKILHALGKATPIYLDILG
Ribosomal protein S6 kinase alpha-1, sequence (Q15418 whole entry): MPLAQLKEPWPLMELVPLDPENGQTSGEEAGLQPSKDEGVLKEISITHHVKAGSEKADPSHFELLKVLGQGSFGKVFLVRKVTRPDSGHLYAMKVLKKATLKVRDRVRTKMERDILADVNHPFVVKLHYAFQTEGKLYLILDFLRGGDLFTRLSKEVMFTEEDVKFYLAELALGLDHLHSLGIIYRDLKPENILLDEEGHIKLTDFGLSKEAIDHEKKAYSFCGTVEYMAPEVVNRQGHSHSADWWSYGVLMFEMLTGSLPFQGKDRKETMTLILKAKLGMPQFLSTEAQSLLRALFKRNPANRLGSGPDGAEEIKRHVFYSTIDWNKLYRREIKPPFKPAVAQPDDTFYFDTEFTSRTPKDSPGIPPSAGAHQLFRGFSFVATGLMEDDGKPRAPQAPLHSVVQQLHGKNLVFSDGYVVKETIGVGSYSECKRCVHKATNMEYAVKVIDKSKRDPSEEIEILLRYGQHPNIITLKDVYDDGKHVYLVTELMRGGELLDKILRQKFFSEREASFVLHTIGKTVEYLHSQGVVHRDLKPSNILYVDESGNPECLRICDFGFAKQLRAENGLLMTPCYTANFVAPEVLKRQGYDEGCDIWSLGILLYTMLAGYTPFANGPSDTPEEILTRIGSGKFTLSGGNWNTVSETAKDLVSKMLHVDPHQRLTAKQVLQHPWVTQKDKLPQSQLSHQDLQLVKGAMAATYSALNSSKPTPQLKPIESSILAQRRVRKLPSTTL
Calcium/calmodulin-dependent protein kinase kinase 2 (Homo sapiens), sequence (Q96RR4 2-588 limits assumed): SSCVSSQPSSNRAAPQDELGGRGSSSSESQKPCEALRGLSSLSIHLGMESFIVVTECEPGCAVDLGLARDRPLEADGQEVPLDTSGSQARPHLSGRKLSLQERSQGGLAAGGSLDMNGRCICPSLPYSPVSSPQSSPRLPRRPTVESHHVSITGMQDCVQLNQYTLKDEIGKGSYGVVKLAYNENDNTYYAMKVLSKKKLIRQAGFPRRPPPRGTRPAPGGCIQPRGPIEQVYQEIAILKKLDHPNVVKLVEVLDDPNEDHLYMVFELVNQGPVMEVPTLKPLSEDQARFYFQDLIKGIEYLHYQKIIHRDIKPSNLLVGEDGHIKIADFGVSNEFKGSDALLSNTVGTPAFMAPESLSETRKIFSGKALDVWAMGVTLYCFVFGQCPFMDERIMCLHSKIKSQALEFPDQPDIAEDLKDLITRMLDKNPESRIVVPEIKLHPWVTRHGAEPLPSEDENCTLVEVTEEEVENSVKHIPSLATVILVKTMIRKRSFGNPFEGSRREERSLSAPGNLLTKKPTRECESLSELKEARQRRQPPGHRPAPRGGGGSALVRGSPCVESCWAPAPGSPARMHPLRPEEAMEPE
Sigma intracellular receptor 2, sequence (Q5BJF2 whole entry): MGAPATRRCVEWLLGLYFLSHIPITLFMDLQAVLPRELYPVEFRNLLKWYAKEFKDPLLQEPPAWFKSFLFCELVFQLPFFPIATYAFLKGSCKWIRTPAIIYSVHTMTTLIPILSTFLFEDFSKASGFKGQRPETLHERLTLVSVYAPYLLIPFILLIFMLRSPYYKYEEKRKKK
Mast/stem cell growth factor receptor Kit (Homo sapiens), sequence (P10721 whole entry): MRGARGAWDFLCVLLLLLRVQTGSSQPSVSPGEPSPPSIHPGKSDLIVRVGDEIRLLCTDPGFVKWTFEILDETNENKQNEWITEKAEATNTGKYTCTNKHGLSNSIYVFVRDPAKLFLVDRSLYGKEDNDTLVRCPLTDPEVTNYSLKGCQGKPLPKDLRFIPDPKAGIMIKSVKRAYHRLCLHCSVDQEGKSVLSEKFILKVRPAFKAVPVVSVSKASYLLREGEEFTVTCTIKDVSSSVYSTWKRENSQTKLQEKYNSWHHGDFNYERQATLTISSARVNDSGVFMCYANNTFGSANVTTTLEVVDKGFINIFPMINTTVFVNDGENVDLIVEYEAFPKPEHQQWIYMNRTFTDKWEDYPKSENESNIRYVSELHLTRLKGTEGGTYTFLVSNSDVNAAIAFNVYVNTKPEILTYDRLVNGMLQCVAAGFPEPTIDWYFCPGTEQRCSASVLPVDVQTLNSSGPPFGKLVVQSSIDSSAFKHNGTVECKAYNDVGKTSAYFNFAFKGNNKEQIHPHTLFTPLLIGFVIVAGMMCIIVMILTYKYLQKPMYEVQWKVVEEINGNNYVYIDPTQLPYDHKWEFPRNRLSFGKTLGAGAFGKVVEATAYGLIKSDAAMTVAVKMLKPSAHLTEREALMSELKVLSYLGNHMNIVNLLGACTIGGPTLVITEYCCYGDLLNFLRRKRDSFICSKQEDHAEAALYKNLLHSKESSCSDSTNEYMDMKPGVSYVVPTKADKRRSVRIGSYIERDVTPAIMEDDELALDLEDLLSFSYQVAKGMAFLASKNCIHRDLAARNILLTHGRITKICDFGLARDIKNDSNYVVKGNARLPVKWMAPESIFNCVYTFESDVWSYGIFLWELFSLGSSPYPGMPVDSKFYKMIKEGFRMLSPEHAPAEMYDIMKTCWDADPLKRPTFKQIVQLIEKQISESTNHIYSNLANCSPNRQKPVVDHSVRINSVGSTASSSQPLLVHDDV

In the case of `CCc1ccccc1C(=O)Nc1n[nH]c2c(C)c(F)c(C3C(C#N)=C(C)N(C)C(C)=C3C#N)cc12` [BAY-3827], the Ki in assay [1] was determined as 2840 nM. This compound displayed an IC50 in [2] of 390 nM. Besides, the residual activity was 100% in assay [3]; 95% in assay [4]; 100% in assay [5]; 100% in [6]; 72% in assay [7]; 100% in assay [8]. Moreover, the residual activity in assay [9] was 100%; in assay [10] it was 100%; in assay [11], 100%; in assay [12], 100%; in assay [13], 91%; in assay [14], 100%. The residual activity in assay [15] was 80%; in [16] it was 100%. In addition, in [17], the inhibition is 10%.
Turning to `CC1=C(C#N)C(c2ccc3c(c2)c(NC(=O)c2ccccc2C)nn3C)C(C#N)=C(C)N1` [BAY-974], in assay [1], the Ki was 4470 nM. In addition, in assay [2], the IC50 was > 30000 nM (not active). Also, the residual activity was 96% in assay [3]; 100% in assay [4]; 100% in assay [5]; 93% in [6]; 100% in assay [7]; 77% in [8]. Besides, the residual activity in [9] is 68%; in assay [10] it was 80%; in assay [11], 96%; in [12] it was 86%; in assay [13], 83%; in assay [14], 100%. In addition, the residual activity in [15] is 74%; in assay [16], 83%. Besides, the inhibition in assay [17] was 10.2%.

One may read the Ki as a measure of affinity in units of concentration, obtained from inhibition or displacement. The term IC50 denotes the concentration needed to halve the response being measured. A low value points to greater potency in that assay. One may read the inhibition as the drop in the measured response relative to a control, in per cent.
